Assay [1] addresses human GLP-1R (Homo sapiens, UniProt P43220, G168S). The experiment in a line: CHO GLP-1R Clone H6 - Assay 1 (HTRF cAMP agonist assay). Type of assay: cell-based. As to conditions: for EC50: CHO GLP-1R Clone H6, cAMP HTRF, geometric mean; for Emax / Assay 1 Emax (%): CHO GLP-1R Clone H6, arithmetic mean, relative to saturating GLP-1 (1 μM). In general terms: In TR-FRET formats the signal depends on donor and acceptor labels being close together.

In assay [2] the target is human GLP-1R (Homo sapiens (Human), UniProt P43220, L260F). The experiment in a line: CHO GLP-1R Clone C6 - Assay 2 (HTRF cAMP agonist assay, low receptor density). As to conditions: for Emax: read-out: Assay 2 Emax (%), CHO GLP-1R Clone C6 (low receptor density), arithmetic mean, relative to saturating GLP-1 (1 μM).
Experimental: CHO GLP-1R Clone C6—Assay 2
GLP-1R-mediated agonist activity was determined with a cell-based functional assay utilizing an HTRF (Homogeneous Time-Resolved Fluorescence) cAMP detection kit (cAMP HI Range Assay Kit; Cis Bio cat #62AM6PEJ) that measures cAMP levels in the cell. The method is a competitive immunoassay between native cAMP produced by the cells and exogenous cAMP labeled with the dye d2. The tracer binding is visualized by a mAb anti-cAMP labeled with Cryptate. The specific signal (i.e. energy transfer) is inversely proportional to the concentration of cAMP in either a standard or an experimental sample.
The human GLP-1R coding sequence (NCBI Reference Sequence NP_002053.3, including naturally-occurring variant Leu260Phe) was subcloned into pcDNA5-FRT-TO and a clonal CHO cell line stably expressing a low receptor density was isolated using the Flp-In™ T-Rex™ System, as described by the manufacturer (ThermoFisher).
Cells were removed from cryopreservation, re-suspended in 40 mL of Dulbecco's Phosphate Buffered Saline (DPBS—Lonza Cat #17-512Q) and centrifuged at 800×g for 5 minutes at 22° C. The DPBS was aspirated, and the cell pellet was re-suspended in 10 mL of complete growth medium (DMEM:F12 1:1 Mixture with HEPES, L-Gln, 500 mL (DMEM/F12 Lonza Cat #12-719F), 10% heat inactivated fetal bovine serum (Gibco Cat #16140-071), 5 mL of 100× Pen-Strep (Gibco Cat #15140-122), 5 mL of 100×L-Glutamine (Gibco Cat #25030-081), 700 μg/mL Hygromycin (Invitrogen Cat #10687010) and 15 μg/mL Blasticidin (Gibco Cat # R21001). A 1 mL sample of the cell suspension in growth media was counted on a Becton Dickinson ViCell to determine cell viability and cell count per mL. The remaining cell suspension was then adjusted with growth media to deliver 1600 viable cells per well using a Matrix Combi Multidrop reagent dispenser, and the cells were dispensed into a white 384 well tissue culture treated assay plate (Corning 3570). The assay plate was then incubated for 48 hours at 37° C. in a humidified environment (95% O2, 5% CO2)
Varying concentrations of each compound to be tested (in DMSO) were diluted in assay buffer [HBSS with Calcium/Magnesium (Lonza/BioWhittaker cat #10-527F)/0.1% BSA (Sigma Aldrich cat # A7409-1L)/20 mM HEPES (Lonza/BioWhittaker cat #17-737E)] containing 100 μM 3-isobutyl-1-methylxanthin (IBMX; Sigma cat #15879). The final DMSO concentration in the compound/assay buffer mixture is 1%.
After 48 hours, the growth media was removed from the assay plate wells, and the cells were treated with 20 μL of the serially diluted compound in assay buffer for 30 minutes at 37° C. in a humidified environment (95% O2, 5% CO2). Following the 30 minute incubation, 10 μL of labeled d2 cAMP and 10 μL of anti-cAMP antibody (both diluted 1:20 in cell lysis buffer; as described in the manufacturer's assay protocol) were added to each well of the assay plate. The plates were then incubated at room temperature and after 60 minutes, changes in the HTRF signal were read with an Envision 2104 multi-label plate reader using excitation of 330 nm and emissions of 615 and 665 nm. Raw data were converted to nM cAMP by interpolation from a cAMP standard curve (as described in the manufacturer's assay protocol) and the percent effect was determined relative to a saturating concentration of the full agonist GLP-1 (1 μM) included on each plate. EC50 determinations were made from agonist dose response curves analyzed with a curve fitting program using a 4-parameter logistic dose response equation.
Setting [3] is: read-out: Assay 2 EC50, CHO GLP-1R Clone C6 (low receptor density), cAMP HTRF, geometric mean.
The mark [4] stands for this setting: Assay 2 EC50 (nM), CHO GLP-1R Clone C6 (low receptor density), cAMP HTRF, geometric mean.
[5] abbreviates: EC50 in Assay 2, CHO GLP-1R Clone C6, cAMP, geometric mean of replicates.

Structures are written as SMILES. Read-outs that look alike come from different tables or passages of the source. Bounds are passed on as bounds.

Results on 19 compounds are retold here after US10676465B2, “GLP-1 receptor agonists and uses thereof” (Pfizer Inc., priority 2018, dated 2020).

Chain of human GLP-1R (Homo sapiens, UniProt P43220, G168S) (P43220 24-463 G168S limits assumed): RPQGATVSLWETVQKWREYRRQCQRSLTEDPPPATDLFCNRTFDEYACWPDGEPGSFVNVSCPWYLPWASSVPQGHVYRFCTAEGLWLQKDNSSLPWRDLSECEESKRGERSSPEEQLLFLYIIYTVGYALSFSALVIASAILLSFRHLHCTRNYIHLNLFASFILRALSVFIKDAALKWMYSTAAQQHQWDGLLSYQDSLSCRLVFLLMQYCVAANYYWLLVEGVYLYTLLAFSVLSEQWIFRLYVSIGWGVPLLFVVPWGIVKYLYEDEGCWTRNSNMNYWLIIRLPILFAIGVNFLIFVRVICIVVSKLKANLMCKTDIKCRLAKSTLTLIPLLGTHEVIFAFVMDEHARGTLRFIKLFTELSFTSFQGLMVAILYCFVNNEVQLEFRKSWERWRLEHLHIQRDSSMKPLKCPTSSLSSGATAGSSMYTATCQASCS
Chain of human GLP-1R (Homo sapiens (Human), UniProt P43220, L260F) (P43220 24-463 L260F): as the sequence (P43220 24-463 G168S limits assumed) above, with S145G, L237F counted along it

What is called EC50 is the concentration needed to bring the measured effect to its halfway point. The term Emax denotes the greatest response seen or fitted, relative to the assay's reference. Turning to `COCCn1c(CN2CCC(c3cccc4c3OC(C)(c3cccc(F)c3)O4)CC2)nc2ccc(C(=O)O)cc21` (stereo not drawn) [Example 31, 2-({4-[2-(3-fluorophenyl)-2-methyl-1,3-benzodioxol-4-yl]piperidin-1-yl}methyl)-1-(2-methoxyethyl)-1H-benzimidazole-6-carboxylic acid], the EC50 in assay [1] was found to be 190 nM; in assay [2] (setting [3]), 1900 nM. In addition, the values for the Emax in assay [1] and in assay [2] were 88% and 65%, respectively.

For the compound `CC1(c2ccc(Cl)cc2F)Oc2cccc(C3CCN(Cc4nc5ccc(C(=O)O)cc5n4CCO)CC3)c2O1` (stereo not drawn) [Example 75, 2-({4-[2-(4-chloro-2-fluorophenyl)-2-methyl-1,3-benzodioxol-4-yl]piperidin-1-yl}methyl)-1-(2-hydroxyethyl)-1H-benzimidazole-6-carboxylic acid], the EC50 in assay [1] is 65 nM; in assay [2] (setting [3]), 1000 nM. In addition, the values for the Emax in assay [1] and in assay [2] were 82% and 71%, respectively.

As to `CCn1nncc1Cn1c(CN2CCC(c3cccc4c3OC(C)(c3ccc(Cl)cc3F)O4)CC2)nc2ccc(C(=O)O)cc21` (stereo not drawn) [Example 76, 2-({4-[2-(4-chloro-2-fluorophenyl)-2-methyl-1,3-benzodioxol-4-yl]piperidin-1-yl}methyl)-1-[(1-ethyl-1H-1,2,3-triazol-5-yl)methyl]-1H-benzimidazole-6-carboxylic acid], the figures for the EC50 in assay [1] and in assay [2] (setting [3]) were 0.77 nM and 7.6 nM, respectively. In addition, the values for the Emax in assay [1] and in assay [2] were 93% and 100%, respectively.

As to `COCCn1c(CN2CCC(c3cccc4c3OC(C)(c3ccc(C)nc3)O4)CC2)nc2ccc(C(=O)O)cc21` (stereo not drawn) [Example 42, 1-(2-methoxyethyl)-2-({4-[2-methyl-2-(6-methylpyridin-3-yl)-1,3-benzodioxol-4-yl]piperidin-1-yl}methyl)-1H-benzimidazole-6-carboxylic acid], the EC50 in assay [1] was 120 nM; in assay [2] (setting [3]) it was 1700 nM. Besides, the Emax is 93% in assay [1] and 83% in assay [2].

As to `COCCn1c(C2CC23CCN(c2cccc4c2OC(C)(c2ccc(Cl)cc2F)O4)CC3)nc2ccc(C(=O)O)cc21` (single isomer, unassigned) [Example 16, 2-{6-[2-(4-Chloro-2-fluorophenyl)-2-methyl-1,3-benzodioxol-4-yl]-6-azaspiro[2.5]oct-1-yl}-1-(2-methoxyethyl)-1H-benzimidazole-6-carboxylic Acid], the EC50 in assay [1] was 7.7 nM; in assay [2] (setting [4]), 120 nM. Besides, the “Assay 1 Emax (%)” value in assay [1] amounted to 90%. For the same compound, the Emax in assay [2] was determined as 64%.

For the compound `CC1(c2ccc(Cl)cn2)Oc2cccc(C3CCN(Cc4nc5ccc(C(=O)O)cc5n4C[C@@H]4CCO4)CC3)c2O1` (single isomer, unassigned) [Example 10], the Emax in assay [1] was 99%; in assay [2] it was 96%.

With `O=C(O)c1ccc2nc(CN3CCC(c4cccc5c4O[C@H](c4ccc(Cl)cc4F)O5)CC3)n(C[C@@H]3CCO3)c2c1` [Example 4, Ammonium 2-({4-[(2R)-2-(4-chloro-2-fluorophenyl)-1,3-benzodioxol-4-yl]piperidin-1-yl}methyl)-1-[(2S)-oxetan-2-ylmethyl]-1H-benzimidazole-6-carboxylate], the EC50 in assay [1] was 1600 nM; in assay [2] (setting [3]), more than 20000 nM; in assay [2] (read-out: EC50 in Assay 2, CHO GLP-1R Clone C6, cAMP, geometric mean of replicates), more than 20000 nM. This compound returned an Emax in assay [1] of 87%.

As to `COCCn1c(CN2CCC(c3cccc4c3OC(C)(c3ccccc3Cl)O4)CC2)nc2ccc(C(=O)O)cc21` (stereo not drawn) [Example 86, 2-({4-[2-(2-chlorophenyl)-2-methyl-1,3-benzodioxol-4-yl]piperidin-1-yl}methyl)-1-(2-methoxyethyl)-1H-benzimidazole-6-carboxylic acid], the values for the concentration giving a half-maximal response (EC50) in assay [1] and in assay [2] (setting [3]) were 24 nM and 410 nM, respectively. Further, the Emax in assay [1] came to 91%; in assay [2], 100%.

As to `COCCn1c(CN2CCC(c3cccc4c3OC(C)(c3ccc(OC)cc3)O4)CC2)nc2ccc(C(=O)O)cc21` (stereo not drawn) [Example 32, 1-(2-methoxyethyl)-2-({4-[2-(4-methoxyphenyl)-2-methyl-1,3-benzodioxol-4-yl]piperidin-1-yl}methyl)-1H-benzimidazole-6-carboxylic acid], the EC50 amounted to 18 nM in assay [1] and 450 nM in assay [2] (setting [3]). The Emax in assay [1] was 86%; in assay [2], 87%.

As to `C[C@]1(c2ccc(Cl)cc2F)Oc2cccc(C3CCN(Cc4nc5ccc(C(=O)O)cc5n4C[C@@H]4CCO4)CC3)c2O1` [Example 7, Ammonium 2-({4-[(2S)-2-(4-chloro-2-fluorophenyl)-2-methyl-1,3-benzodioxol-4-yl]piperidin-1-yl}methyl)-1-[(2S)-oxetan-2-ylmethyl]-1H-benzimidazole-6-carboxylate], the results for the EC50 in assay [1], in assay [2] (setting [4]) and in assay [2] (setting [5]) were 0.26 nM, 3.1 nM and 2.9 nM, respectively. In addition, the Emax in assay [1] is 98%; in assay [2], 93%.

For `CC1(c2ccc(Cl)cc2F)Oc2cccc(C3CCN(Cc4nc5ccc(C(=O)O)cc5n4CCn4cccn4)CC3)c2O1` (stereo not drawn) [Example 53, 2-({4-[2-(4-chloro-2-fluorophenyl)-2-methyl-1,3-benzodioxol-4-yl]piperidin-1-yl}methyl)-1-[2-(1H-pyrazol-1-yl)ethyl]-1H-benzimidazole-6-carboxylic acid], the EC50 in assay [1] stood at 3.1 nM; in assay [2] (setting [3]), 52 nM. Besides, the Emax in assay [1] was 87%; in assay [2] it was 84%.

Take `Cn1ncnc1Cn1c(CN2CCC(c3cccc4c3OC(C)(c3ccc(Cl)cc3F)O4)CC2)nc2ccc(C(=O)O)cc21` (stereo not drawn) [Example 57, 2-({4-[2-(4-chloro-2-fluorophenyl)-2-methyl-1,3-benzodioxol-4-yl]piperidin-1-yl}methyl)-1-[(1-methyl-1H-1,2,4-triazol-5-yl)methyl]-1H-benzimidazole-6-carboxylic acid]: the EC50 in assay [1] is 15 nM; in assay [2] (setting [3]), 500 nM. For the same compound, the figures for the Emax in assay [1] and in assay [2] were 86% and 98%, respectively.

Take `CN(CCn1c(CN2CCC(c3cccc4c3OC(C)(c3ccc(Cl)cc3F)O4)CC2)nc2ccc(C(=O)O)cc21)S(C)(=O)=O` (stereo not drawn) [Example 71, 2-({4-[2-(4-chloro-2-fluorophenyl)-2-methyl-1,3-benzodioxol-4-yl]piperidin-1-yl}methyl)-1-{2-[methyl(methylsulfonyl)amino]ethyl}-1H-benzimidazole-6-carboxylic acid]: the EC50 was determined as 6.8 nM in assay [1] and 74 nM in assay [2] (setting [3]). In addition, the Emax in assay [1] and in assay [2] was 80% each time.

In assay [1], `COCCn1c(C2CC23CCN(c2cccc4c2OC(C)(c2ccc(Cl)cc2F)O4)CC3)nc2ccc(C(=O)O)cc21` (single isomer, unassigned) [Example 15, 2-{6-[2-(4-Chloro-2-fluorophenyl)-2-methyl-1,3-benzodioxol-4-yl]-6-azaspiro[2.5]oct-1-yl}-1-(2-methoxyethyl)-1H-benzimidazole-6-carboxylic Acid] yielded an EC50 of more than 18000 nM and an Emax of 100%. In addition, the EC50 in assay [2] (setting [4]) was more than 20000 nM.

For the compound `COCCn1c(CN2CCC(c3cccc4c3OC(C)(c3ccc(C)cc3)O4)CC2)nc2ccc(C(=O)O)cc21` (stereo not drawn) [Example 84, 1-(2-methoxyethyl)-2-({4-[2-methyl-2-(4-methylphenyl)-1,3-benzodioxol-4-yl]piperidin-1-yl}methyl)-1H-benzimidazole-6-carboxylic acid], the EC50 in assay [1] is 9.1 nM; in assay [2] (setting [3]), 100 nM. Further, the Emax in assay [1] was 93%; in assay [2], 86%.

Take `COCCn1c(CN2CCN(c3cccc4c3OC(c3ccc(Cl)cc3F)O4)CC2)nc2ccc(C(=O)O)cc21` (single isomer, unassigned) [Example 2, 2-({4-[2-(4-Chloro-2-fluorophenyl)-1,3-benzodioxol-4-yl]piperazin-1-yl}methyl)-1-(2-methoxyethyl)-1H-benzimidazole-6-carboxylic Acid]: in assay [1], the EC50 was 6.6 nM and the “Assay 1 Emax (%)” value worked out at 81%. Further, in assay [2] (setting [4]), the midpoint of the response, the EC50, lay at 260 nM. For the same compound, the Emax in assay [2] was determined as 100%.

For `COCCn1c(CN2CCC(c3cccc4c3OC(C)(c3ccc(Cl)cc3)O4)CC2)nc2ccc(C(=O)O)cc21` (stereo not drawn) [Example 33, 2-({4-[2-(4-chlorophenyl)-2-methyl-1,3-benzodioxol-4-yl]piperidin-1-yl}methyl)-1-(2-methoxyethyl)-1H-benzimidazole-6-carboxylic acid], the half-maximal effective concentration (EC50) in assay [1] came out at 2.6 nM; in assay [2] (setting [3]), 100 nM. For the same compound, the Emax in assay [1] was 85%; in assay [2], 86%.

As to `O=C(O)c1ccc2nc(CN3CCC(c4cccc5c4O[C@@H](c4ccc(Cl)cc4F)O5)CC3)n(C[C@@H]3CCO3)c2c1` [Example 5, Ammonium 2-({4-[(2S)-2-(4-chloro-2-fluorophenyl)-1,3-benzodioxol-4-yl]piperidin-1-yl}methyl)-1-[(2S)-oxetan-2-ylmethyl]-1H-benzimidazole-6-carboxylate], the EC50 came out at 1.3 nM in assay [1], 20 nM in assay [2] (setting [5]) and 23 nM in assay [2] (setting [3]). Besides, the figures for the Emax in assay [1] and in assay [2] were 89% and 97%, respectively.

Regarding `COCCn1c(CN2CCC(c3cccc4c3OC(C)(c3ccc(Cl)cc3F)O4)CC2)nc2ncc(C(=O)O)cc21` (stereo not drawn) [Example 3, 2-({4-[2-(4-Chloro-2-fluorophenyl)-2-methyl-1,3-benzodioxol-4-yl]piperidin-1-yl}methyl)-1-(2-methoxyethyl)-1H-imidazo[4,5-b]pyridine-6-Carboxylic Acid], the EC50 came out at 1.3 nM in assay [1] and 45 nM in assay [2] (setting [3]). For the same compound, the Emax in assay [1] stood at 94%; in assay [2] it was 120%.
